{"source": "patent US6566307B1", "about": "“α,α′-substituted n-alkyl-3-alkenylbenzoyl-pyrazol-derivatives” (BASF Aktiengesellschaft, priority 1999, dated 2003)", "assay_in_all_cases": "Greenhouse herbicidal activity, post-emergence method", "conditions_in_all_cases": "scale 0 to 100 (100 = complete destruction, 0 = no damage)", "key": {"SINAL": {"tested_on": "SINAL", "type": "in vivo, white mustard", "description": "(§1) The herbicidal activity of the compounds of the formula I was shown by greenhouse experiments: The culture containers used are plastic pots containing loamy sand with approximately 3.0% of humus as the substrate. The seeds of the test plants are sown separately for each species. For the post-emergence treatment, the test plants were first grown to a height of 3 to 15 cm, depending on the plant form, and only then treated with the active compounds which have been suspended or emulsified in water. The test plants were for this purpose either sown directly and grown in the same containers, or they were first grown separately as seedlings and transplanted into the test containers a few days prior to treatment. The application rate for the post-emergence treatment was 0.25, 0.125 or 0.0625 kg of active substance (a.s.)/ha. Depending on the species, the plants were kept at 10-25° C. or 20-35° C. The test period extended over 2 to 4 weeks. During this time, the plants are tended, and their response to the individual treatments was evaluated. The evaluation was carried out using a scale from 0 to 100. 100 means no emergence of the plants, or complete destruction of at least the aerial parts and 0 means no damage, or normal course of growth. The plants used in the greenhouse experiments were composed of the following species: [table]"}, "ECHCG": {"tested_on": "ECHCG", "type": "in vivo, barnyardgrass", "description": "as §1"}, "SETVI": {"tested_on": "SETVI", "type": "in vivo, green foxtail", "description": "as §1"}, "CHEAL": {"tested_on": "CHEAL", "type": "in vivo, lambsquarter", "description": "as §1"}, "POLPE": {"tested_on": "POLPE", "type": "in vivo, ladysthumb", "description": "as §1"}, "[1]": {"conditions": "application rate 0.0625 kg of a.s./ha"}, "[2]": {"conditions": "application rate 0.125 kg of a.s./ha"}}, "data": [{"smiles": "C=Cc1c(S(C)(=O)=O)ccc(C(=O)C2C=NN(C(C)C)C2O)c1OC", "note": "(stereo not shown)", "values": [{"measurement": "Herbicidal activity when used by the post-emergence method in a greenhouse", "setting": "SINAL; [1]", "value": 98}, {"measurement": "Herbicidal activity when used by the post-emergence method in a greenhouse", "setting": "SINAL; [2]", "value": 98}, {"measurement": "Herbicidal activity when used by the post-emergence method in a greenhouse", "setting": "ECHCG; [1]", "value": 95}, {"measurement": "Herbicidal activity when used by the post-emergence method in a greenhouse", "setting": "ECHCG; [2]", "value": 95}, {"measurement": "Herbicidal activity when used by the post-emergence method in a greenhouse", "setting": "SETVI; [1]", "value": 95}, {"measurement": "Herbicidal activity when used by the post-emergence method in a greenhouse", "setting": "SETVI; [2]", "value": 95}, {"measurement": "Herbicidal activity when used by the post-emergence method in a greenhouse", "setting": "CHEAL; [1]", "value": 100}, {"measurement": "Herbicidal activity when used by the post-emergence method in a greenhouse", "setting": "CHEAL; [2]", "value": 100}, {"measurement": "Herbicidal activity when used by the post-emergence method in a greenhouse", "setting": "POLPE; [1]", "value": 100}, {"measurement": "Herbicidal activity when used by the post-emergence method in a greenhouse", "setting": "POLPE; [2]", "value": 100}]}]}
